In US20130102680A1, “METHODS FOR SELECTIVE SILENCING OF SENSORY NEURONS” (CORNELL UNIVERSITY, priority 2011, published 2013):
Each block holds one compound with its values, some of them ahead of it.

Experiments:
rat TRPV1 [1] = target: T1, rat TRPV1 (Rattus norvegicus, UniProt O35433); test: YO-PRO-1 uptake (imaging / plate-reader) in TRPV1-expressing cells; type: cell-based; settings: for fold decrease of t1/2 to maximal YO-PRO-1 fluorescence, pretreated vs not pretreated cells: 50 μM agonist pre-incubated two hours then removed, 5 μM YO-PRO-1, n=3; for agonist-induced YO-PRO-1 uptake: extracellular application
T1 construct: expressed in transfected cells
T1 sequence (O35433 whole entry): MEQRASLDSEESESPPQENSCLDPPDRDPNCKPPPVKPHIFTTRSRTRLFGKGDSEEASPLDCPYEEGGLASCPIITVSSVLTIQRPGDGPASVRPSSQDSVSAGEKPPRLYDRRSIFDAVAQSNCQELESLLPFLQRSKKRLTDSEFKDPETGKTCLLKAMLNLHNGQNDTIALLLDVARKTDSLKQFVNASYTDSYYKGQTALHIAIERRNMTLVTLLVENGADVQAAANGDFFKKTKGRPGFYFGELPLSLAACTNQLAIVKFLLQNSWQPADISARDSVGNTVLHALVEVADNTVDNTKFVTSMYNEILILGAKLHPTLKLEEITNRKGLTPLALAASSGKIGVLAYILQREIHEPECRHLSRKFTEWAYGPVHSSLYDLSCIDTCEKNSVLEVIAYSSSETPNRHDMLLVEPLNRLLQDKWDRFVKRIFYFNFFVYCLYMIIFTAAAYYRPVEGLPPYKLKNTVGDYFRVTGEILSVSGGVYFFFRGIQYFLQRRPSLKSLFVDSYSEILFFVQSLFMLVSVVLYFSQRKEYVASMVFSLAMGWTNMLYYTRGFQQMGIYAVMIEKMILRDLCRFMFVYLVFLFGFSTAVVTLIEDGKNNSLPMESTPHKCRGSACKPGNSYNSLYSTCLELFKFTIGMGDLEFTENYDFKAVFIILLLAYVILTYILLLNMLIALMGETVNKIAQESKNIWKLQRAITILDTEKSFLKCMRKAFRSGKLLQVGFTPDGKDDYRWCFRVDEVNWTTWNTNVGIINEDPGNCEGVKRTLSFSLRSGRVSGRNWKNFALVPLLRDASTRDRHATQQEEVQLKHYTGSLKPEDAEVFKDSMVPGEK
Description: Human embryonic kidney (HEK) 293 cells stably expressing rat TRPV1 were grown in DMEM/F12 with 10% newborn calf serum and antibiotics and cultured in a 5% CO2 aerated incubator at 37° C. Cells were trypsinized and plated on 96-well plates or matrix-coated coverslips for Ca^2+ imaging, YO-PRO-1 imaging, plate-reader assays, or electrophysiological recording. Calcium imaging, fluorescent dye uptake assays, and electrophysiological experiments were all performed 24-72 hours after plating.
Cells were plated in 96-well plates to near confluence. Images were acquired at a rate of 1 frame per 15 sec. The fields were illuminated for 2 sec for each frame. The fluorescent intensity was measured at the emission wavelength of 510/20 nm. 2× concentration of agonists and 10 μM YO-PRO-1 were mixed and added at equal volume to a bath solution with the same electrolyte composition except omitting CaCl2.
TRPV1 cell lines were passed into 96-well plate, grown to confluence, and assayed in a physiological Ringer solution. 50 μl of solution as used for YO-PRO-1 imaging with agonists of various concentrations was added to each well. Fluorescence intensity (485-nm excitation, 516-nm emission) was monitored by Multi-detection Microplate Reader (BioTek). For normalization, cells were fixed by 5% PFA at the end of experiments and counted total fluorescence from each well after adding digitonin solution (Assay Designs) with 5 μM YO-PRO-1.

rat TRPV1 [2] = target: T1, rat TRPV1; test: Electrophysiology of membrane patches from HEK cells expressing rat TRPV1; type: cell-based
rat TRPV1 [3] = target: T1, rat TRPV1; test: Ca^2+ imaging (Fura-2) in HEK293 cells stably expressing rat TRPV1; type: cell-based; settings: for intracellular Ca^2+ level on extracellular application: ratiometric fura-2 imaging
[4] = test system: voltage gated Na+ channels; test: Neuronal Na+ currents after cap-ET and/or QX-314 loading, whole-cell recording; settings: PAO or cap-ET alone (10 μM), then 5 mM QX-314
rTRPV1 Y511A = target: T2, rTRPV1 Y511A (Rattus norvegicus, UniProt O35433, Y511A); test: YO-PRO-1 entry in HEK cells expressing rTRPV1 Y511A; type: cell-based
T2 construct: expressed in transfected cells; host or cells: HEK cells
T2 sequence (O35433 whole entry Y511A): as the sequence (O35433 whole entry) above, with Y511A counted along it

SMILES: CCCC(=O)O[C@@H]1[C@@H](C)[C@@]2(O)[C@@H](C=C(CO)C[C@]3(O)C(=O)C(C)=C[C@@H]23)[C@@H]2C(C)(C)[C@]12OC(=O)CCC [PDBu]
effect on potency of capsaicin or cap-ET for YO-PRO-1 uptake (rat TRPV1 [1]): increased the potency

block of capsaicin-induced TRPV1 currents (rat TRPV1 [2]; 100 μM cap-ET co-applied with 30 μM capsaicin, from outside or inside): strong voltage-dependent block
electric current induced on cytoplasmic side of inside-out patch (rat TRPV1 [2]; 100 μM cap-ET, compared to 30 μM capsaicin): barely detectable electric current
hydrophilicity relative to capsaicin, based on water/octanol partitioning: over 300 fold
fold decrease of t1/2 to maximal YO-PRO-1 fluorescence, pretreated vs not pretreated cells (rat TRPV1 [1]): 5.37±0.99 fold
agonist-induced YO-PRO-1 uptake (rat TRPV1 [1]): induced YO-PRO-1 uptake
SMILES: COc1cc(CNC(=O)CCCC/C=C/C(C)C)ccc1OCC[N+](C)(C)C [cap-ET, capsaicin O-ethyl (trimethyl-ammonium) acetate]
Icap-ET/Icap (ionic current relative to capsaicin), PAO-sensitized TRPV1 (rat TRPV1 [2]): 3.0±0.9%
electric current induced, TRPV1 sensitized by 10 μM PAO (rat TRPV1 [2]; 100 μM cap-ET): recordable but small current
rank of potency and efficacy in Ca^2+ signals among the three charged capsaicinoids (rat TRPV1 [3]): most potent and efficacious among the three
intracellular Ca^2+ level on extracellular application (rat TRPV1 [3]): effectively raised intracellular Ca^2+ levels
Na+ current density after QX-314, agent alone [4]: comparable to cells not exposed to QX-314

YO-PRO-1 transport via rTRPV1 Y511A mutant (rTRPV1 Y511A): failed to elicit YO-PRO-1 transport
fold decrease of t1/2 to maximal YO-PRO-1 fluorescence, pretreated vs not pretreated cells (rat TRPV1 [1]): 1.14±0.04 fold
agonist-induced YO-PRO-1 uptake (rat TRPV1 [1]): induced YO-PRO-1 uptake
intracellular Ca^2+ level on extracellular application (rat TRPV1 [3]): large intracellular Ca^2+ rise
SMILES: COc1cc(CNC(=O)CCCC/C=C/C(C)C)ccc1O [capsaicin]

SMILES: CC[N+](CC)(CC)CCOc1ccc(CNC(=O)CCCC/C=C/C(C)C)cc1OC [cap-ETEA, capsaicin O-tetra-ethylammonium acetate]
intracellular Ca^2+ level on extracellular application (rat TRPV1 [3]): effectively raised intracellular Ca^2+ levels

effect on capsaicin-mediated YO-PRO-1 entry (rat TRPV1 [1]; 10 μM): effectively suppressed YO-PRO-1 entry
SMILES: N.N.N.N.N.N.N.N.N.N.N.N.N.N.[Cl-].[Cl-].[Cl-].[Cl-].[Cl-].[Cl-].[O-2].[O-2].[Ru+3].[Ru+3].[Ru+4] [RR, ruthenium red]

block of TRPV1 currents evoked by 10 μM capsaicin (rat TRPV1 [2]; 5 μM, inside-out patch): reversibly blocked
SMILES: C[n+]1c(C=C2C=CN(CCC[N+](C)(C)C)c3ccccc32)oc2ccccc21 [YO-PRO-1, reference compound]
